From PubChem BioAssay AID1259407 (Chemical Carcinogenesis Research Information System (CCRIS), 2018)
Active and inactive are the calls of the source. No rule for the calls is given here.

System: CCRIS mutagenicity, Ames/micronucleus/aberration tests
Assay: CCRIS mutagenicity studies
[1] = Test System: AMES SALMONELLA TYPHIMURIUM, Strain/Indicator: TA98, Metabolic Activation: NONE, Method: STANDARD PLATE
[2] = Test System: AMES SALMONELLA TYPHIMURIUM, Strain/Indicator: TA100, Metabolic Activation: NONE, Method: STANDARD PLATE

CC1(C)CC2=C(C=O)[C@]3(C=O)C[C@]3(C)[C@@H](O)[C@@H]2C1
mutagenic call [1]: inactive; negative | mutagenic call [2]: inactive; negative | mutagenic call (Test System: AMES SALMONELLA TYPHIMURIUM, Strain/Indicator: TA2637, Metabolic Activation: NONE, Method: STANDARD PLATE): inactive; negative

COc1c(N2C[C@@H]3CCCN[C@@H]3C2)c(F)cc2c(=O)c(C(=O)O)cn(C3CC3)c12
mutagenic call (Test System: CHINESE HAMSTER V-79, Strain/Indicator: V-79 (HGPRT)/6-THIOGUANINE, Metabolic Activation: NONE, Method: STANDARD PLATE): inactive; negative

O=[N+]([O-])O[C@@H]1CO[C@H]2[C@@H]1OC[C@@H]2O
mutagenic call [1]: inactive; negative | mutagenic call (Test System: AMES SALMONELLA TYPHIMURIUM, Strain/Indicator: TA98, Metabolic Activation: RAT, LIVER, S-9, AROCLOR 1254, Method: STANDARD PLATE): inactive; negative | mutagenic call [2]: inactive; negative | mutagenic call (Test System: AMES SALMONELLA TYPHIMURIUM, Strain/Indicator: TA100, Metabolic Activation: RAT, LIVER, S-9, AROCLOR 1254, Method: STANDARD PLATE): inactive; negative | mutagenic call (Test System: AMES SALMONELLA TYPHIMURIUM, Strain/Indicator: TA1535, Metabolic Activation: NONE, Method: STANDARD PLATE): inactive; negative | mutagenic call (Test System: AMES SALMONELLA TYPHIMURIUM, Strain/Indicator: TA1535, Metabolic Activation: RAT, LIVER, S-9, AROCLOR 1254, Method: STANDARD PLATE): inactive; negative | mutagenic call (Test System: AMES SALMONELLA TYPHIMURIUM, Strain/Indicator: TA1537, Metabolic Activation: NONE, Method: STANDARD PLATE): inactive; negative | mutagenic call (Test System: AMES SALMONELLA TYPHIMURIUM, Strain/Indicator: TA1537, Metabolic Activation: RAT, LIVER, S-9, AROCLOR 1254, Method: STANDARD PLATE): inactive; negative

CC(CCC(=O)O)(c1ccc(O)cc1)c1ccc(O)cc1
mutagenic call (Test System: MOUSE LYMPHOMA, Strain/Indicator: L5178Y (TK+/TK-), Metabolic Activation: NONE, Method: SUSPENSION/PLATE): active; positive | mutagenic call (Test System: MOUSE LYMPHOMA, Strain/Indicator: L5178Y (TK+/TK-), Metabolic Activation: RAT LIVER S-9, AROCLOR, Method: SUSPENSION/PLATE): active; positive
